Patent US20240216272A1, “PHARMACEUTICAL PREPARATION” (KOWA COMPANY, LTD., priority 2014, published 2024)

How the values were obtained:
Type in all cases: physicochemical
[1] = Test Example 3: wavelengths of rays causing degradation of ripasudil in an aqueous composition No. 1; details: for Analogs (%): about 15 W·h/m^2, 25° C.; for increase in the amount of analogs: aqueous composition, in words
Experimental: In the following test examples, ripasudil monohydrochloride dihydrate can be produced in accordance with the method described in WO2006/057397, for example. Moreover, in the following test examples, measurement of ripasudil and its analogs using HPLC was performed using an ODS column as the column, 0.01 mol/L phosphate buffer and acetonitrile as the mobile phase, and an ultraviolet absorptiometer (wavelength: 280 nm) as the detector. The wavelengths of rays causing the photodegradation of ripasudil in the aqueous composition examined in Test Example 2 were identified by examining the presence or absence of degradation products formed by exposure to light, by irradiation of rays with a specific range of wavelengths. Specifically, an aqueous composition containing, per 100 mL, 0.0612 g of ripasudil monohydrochloride dihydrate (0.05 g as the free form of ripasudil), 1.19 g of boric acid, 0.42 g of potassium chloride, 0.002 g of benzalkonium chloride, an appropriate amount of sodium hydroxide (pH 6.7), and sterile purified water (balance) was prepared, and this aqueous composition was stored in a transparent container made of polypropylene. The aqueous composition was then irradiated with rays with wavelengths in the range of approximately 270 to 335 nm, 320 to 395 nm, 370 to 435 nm, 430 to 470 nm, 470 to 530 nm, 525 to 575 nm, 570 to 630 nm, 625 to 675 nm, or 660 to 740 nm, at 25° C., using a spectroradiometer equipped with optical filters (spectral unit: HSU-100S, light source: MAX-302FBD; both from Asahi Spectra Co., Ltd.). Note that the rays of wavelengths in each of the ranges were emitted at a radiation energy of about 15 w·h/m^2. To examine the presence or absence of photodegradation products of ripasudil, the presence or absence of an increase in the amount of ripasudil analogs was evaluated, using the same method as that of Test Example 1.

[2] = Test Example 10: Preservation Test No. 4, precipitation of crystals at 0° C.; design: key to Presence or Absence of Precipitation of Crystals: the absence of precipitation of crystals was rated as “a”; the presence of precipitation of crystals was rated as “b”
Experimental: An aqueous composition of the formulation shown in Table 13 was prepared in accordance with a conventional method, and then placed in a container made of polyethylene terephthalate (PET) to produce a pharmaceutical preparation. The resulting pharmaceutical preparation was preserved at 0° C. for 21 days, and then visually evaluated for the presence or absence of precipitation of crystals. Note that the absence of precipitation of crystals was rated as “a”, and the presence of precipitation of crystals was rated as “b”. [table]

[3] = Test Example 2: photostability of ripasudil in an aqueous composition; details: D65 lamp; for Analogs (%): aqueous composition 0.4 g/100 mL as free form, pH 6.0, transparent polypropylene container, 25° C.
Experimental: In the following test examples, ripasudil monohydrochloride dihydrate can be produced in accordance with the method described in WO2006/057397, for example. Moreover, in the following test examples, measurement of ripasudil and its analogs using HPLC was performed using an ODS column as the column, 0.01 mol/L phosphate buffer and acetonitrile as the mobile phase, and an ultraviolet absorptiometer (wavelength: 280 nm) as the detector.
The stability of ripasudil incorporated in an aqueous composition with respect to light was evaluated by examining the presence or absence of degradation products formed by exposure to light, as in Test Example 1.
Specifically, an aqueous composition containing, per 100 mL, 0.4896 g of ripasudil monohydrochloride dihydrate (0.4 g, as the free form of ripasudil), 0.4 g of anhydrous sodium dihydrogen phosphate, 2.136 g of glycerin, 0.002 g of benzalkonium chloride, an appropriate amount of sodium hydroxide (pH 6.0), and sterile purified water (balance) was prepared, and this aqueous composition was stored in a transparent container made of polypropylene. The aqueous composition was then irradiated with 4000 lux of light to give a cumulative radiation dose of 300,000, 600,000, or 1,200,000 lux·hr, at 25° C., with a D65 fluorescent lamp as the light source, using a photostability tester (LT-120A: Nagano Science Corporation).
To examine the presence or absence of photodegradation products of ripasudil, the presence or absence of an increase in the amount of ripasudil analogs was evaluated. The amount of analogs was evaluated as the area percentage (%) relative to the total peak area derived from ripasudil and its analogs, using HPLC.

[4] = Test Example 9: Preservation Test No. 3, precipitation of crystals at 0° C.; design: key to Presence or Absence of Precipitation of Crystals: the absence of precipitation of crystals was rated as “a”; the presence of precipitation of crystals was rated as “b”; details: for Presence or Absence of Precipitation of Crystals: aqueous composition of Table 11 (phosphate, pH 6.7), 0° C. for 2 days; for precipitation of crystals: preserved at low temperature, in words
Experimental: An aqueous composition of the formulation shown in Table 11 was prepared in accordance with a conventional method, and then placed in a container made of polyethylene terephthalate (PET) or polyvinyl chloride (PVC) to produce a pharmaceutical preparation. Each of the resulting pharmaceutical preparations was preserved at 0° C. for 2 days, and then visually evaluated for the presence or absence of precipitation of crystals. Note that the absence of precipitation of crystals was rated as “a”, and the presence of precipitation of crystals was rated as “b”. [table]

## C[C@H]1CNCCCN1S(=O)(=O)c1cccc2cncc(F)c12 [ripasudil, 4-fluoro-5-[[(2S)-2-methyl-1,4-diazepan-1-yl]sulfonyl]isoquinoline]
[1]; aqueous composition 0.05 g/100 mL as free form, boric acid, pH 6.7, transparent polypropylene container, emitted wavelengths 270 to 335 nm
  Analogs (%): 4.22%
[1]; rays with wavelengths of 370 nm or more
  increase in the amount of analogs: an increase in the amount of analogs was not observed
[1]; shorter wavelengths, particularly 270 to 335 nm
  increase in the amount of analogs: a significant increase in the amount of analogs was observed
[1]; same composition, emitted wavelengths 320 to 395 nm
  Analogs (%): 1.23%
[1]; same composition, emitted wavelengths 370 to 435 nm
  Analogs (%): 0.05%
[1]; same composition, emitted wavelengths 430 to 470 nm
  Analogs (%): 0.05%
[1]; same composition, emitted wavelengths 470 to 530 nm
  Analogs (%): 0.05%
[1]; same composition, emitted wavelengths 525 to 575 nm
  Analogs (%): 0.05%
[1]; same composition, emitted wavelengths 570 to 630 nm
  Analogs (%): 0.05%
[1]; same composition, emitted wavelengths 625 to 675 nm
  Analogs (%): 0.05%
[1]; same composition, emitted wavelengths 660 to 740 nm
  Analogs (%): 0.05%
[2]; aqueous composition of Table 13 (boric acid, pH 6.7), 0° C. for 21 days, container PET
  Presence or Absence of Precipitation of Crystals: a
[2]; changed formulation, preserved at low temperature, container made of PET, in words
  precipitation of crystals: no precipitation of crystals was observed
[3]; 300,000 lux·hr
  Analogs (%): 1.29%
[3]; 600,000 lux·hr
  Analogs (%): 1.95%
[3]; 1,200,000 lux·hr
  Analogs (%): 3.67%
[3]; before exposure to light
  Analogs (%): 0.17%
[3]; aqueous composition, transparent polypropylene container, in words
  formation of degradation products due to exposure to light: degradation products due to exposure to light are formed
[4]; container PET
  Presence or Absence of Precipitation of Crystals: a
[4]; container PVC
  Presence or Absence of Precipitation of Crystals: b
[4]; container made of PET
  precipitation of crystals: no precipitation of crystals was observed
[4]; container made of PVC
  precipitation of crystals: precipitation of crystals was observed
